Measured values from ChEMBL document CHEMBL5357082, “Identification and Optimization of Small Molecule Pyrazolopyrimidine TLR7 Agonists for Applications in Immuno-oncology” (ACS Med Chem Lett, 2024).
Activity calls are given as the source filed them. No cut-off for these calls is given here.

Key:
[1] = Permeability of compound at pH 7.4 by PAMPA; assay type: ADME; conditions: read-out: permeability
Toll-like receptor 7 [2] = target: T1, Toll-like receptor 7 (Mus musculus, UniProt P58681); experiment: (§1) Agonist activity at mouse TLR7
T1 sequence (P58681 whole entry): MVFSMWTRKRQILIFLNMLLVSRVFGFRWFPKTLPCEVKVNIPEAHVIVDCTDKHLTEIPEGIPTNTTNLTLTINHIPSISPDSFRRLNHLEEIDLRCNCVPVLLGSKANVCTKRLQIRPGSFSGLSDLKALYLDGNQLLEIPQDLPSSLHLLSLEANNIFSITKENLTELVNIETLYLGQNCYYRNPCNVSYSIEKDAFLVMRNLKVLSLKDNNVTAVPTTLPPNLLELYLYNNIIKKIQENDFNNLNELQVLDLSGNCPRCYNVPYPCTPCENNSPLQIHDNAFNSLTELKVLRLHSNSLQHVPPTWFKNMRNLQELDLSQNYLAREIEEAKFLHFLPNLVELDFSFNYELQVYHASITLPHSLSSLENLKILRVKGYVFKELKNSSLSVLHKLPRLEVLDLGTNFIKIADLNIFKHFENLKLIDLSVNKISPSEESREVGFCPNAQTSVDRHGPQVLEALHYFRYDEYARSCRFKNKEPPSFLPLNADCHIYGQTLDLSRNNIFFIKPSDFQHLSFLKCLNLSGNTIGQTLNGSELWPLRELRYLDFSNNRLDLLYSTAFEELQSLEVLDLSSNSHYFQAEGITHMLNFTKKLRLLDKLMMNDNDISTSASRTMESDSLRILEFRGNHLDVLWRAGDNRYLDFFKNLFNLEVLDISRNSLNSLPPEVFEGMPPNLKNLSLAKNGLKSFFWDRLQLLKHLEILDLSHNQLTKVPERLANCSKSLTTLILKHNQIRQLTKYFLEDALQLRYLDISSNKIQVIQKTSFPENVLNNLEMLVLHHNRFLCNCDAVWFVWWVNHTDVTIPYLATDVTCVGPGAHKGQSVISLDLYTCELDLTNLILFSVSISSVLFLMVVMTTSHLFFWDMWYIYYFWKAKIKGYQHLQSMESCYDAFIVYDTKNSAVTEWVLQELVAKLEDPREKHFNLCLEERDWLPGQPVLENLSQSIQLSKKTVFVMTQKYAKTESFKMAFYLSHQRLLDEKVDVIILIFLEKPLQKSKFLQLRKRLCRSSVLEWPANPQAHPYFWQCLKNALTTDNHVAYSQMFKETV

[3] = target: Voltage-gated inwardly rectifying potassium channel KCNH2 (Homo sapiens, UniProt Q12809); experiment: Inhibition of hERG; assay type: toxicity
Toll-like receptor 7 [4] = target: T2, Toll-like receptor 7 (Homo sapiens, UniProt Q9NYK1); experiment: Agonist activity at human TLR7 in HEK-Blue hTLR7 cells harboring SEAP reporter transgene incubated for 18 hrs by quanti-blue reagent based assay; assay type: cell-based
T2 sequence (Q9NYK1 whole entry): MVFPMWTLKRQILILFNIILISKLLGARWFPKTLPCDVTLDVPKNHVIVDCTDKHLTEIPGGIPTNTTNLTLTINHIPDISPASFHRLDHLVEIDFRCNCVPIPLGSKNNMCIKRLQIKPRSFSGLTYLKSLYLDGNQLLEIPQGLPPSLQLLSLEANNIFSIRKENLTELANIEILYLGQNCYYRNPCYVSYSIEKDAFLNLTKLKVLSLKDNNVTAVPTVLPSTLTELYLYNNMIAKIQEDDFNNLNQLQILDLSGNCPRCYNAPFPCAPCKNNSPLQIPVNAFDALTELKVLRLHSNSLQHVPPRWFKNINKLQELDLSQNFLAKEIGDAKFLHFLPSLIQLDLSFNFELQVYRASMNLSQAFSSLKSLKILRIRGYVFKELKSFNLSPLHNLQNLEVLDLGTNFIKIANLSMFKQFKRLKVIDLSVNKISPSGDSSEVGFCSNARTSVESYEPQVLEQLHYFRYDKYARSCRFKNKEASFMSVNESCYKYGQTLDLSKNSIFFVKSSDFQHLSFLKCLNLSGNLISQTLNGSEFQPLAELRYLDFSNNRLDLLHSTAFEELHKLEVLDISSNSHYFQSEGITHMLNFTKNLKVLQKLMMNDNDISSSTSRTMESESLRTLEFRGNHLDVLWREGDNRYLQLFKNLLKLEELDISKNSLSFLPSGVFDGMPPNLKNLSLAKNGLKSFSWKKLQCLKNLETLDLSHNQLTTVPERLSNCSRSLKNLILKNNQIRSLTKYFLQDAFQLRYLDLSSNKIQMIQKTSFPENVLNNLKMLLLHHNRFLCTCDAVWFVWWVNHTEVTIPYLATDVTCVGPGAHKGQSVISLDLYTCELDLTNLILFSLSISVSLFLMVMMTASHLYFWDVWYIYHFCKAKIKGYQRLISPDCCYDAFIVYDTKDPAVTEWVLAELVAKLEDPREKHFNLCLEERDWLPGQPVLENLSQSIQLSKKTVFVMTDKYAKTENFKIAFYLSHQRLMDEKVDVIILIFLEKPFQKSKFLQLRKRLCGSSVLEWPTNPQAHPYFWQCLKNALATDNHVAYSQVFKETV

Cytochrome P450 3A4 [5] = target: T3, Cytochrome P450 3A4 (Homo sapiens, UniProt P08684); experiment: Inhibition of CYP3A4 (unknown origin) using BFC as substrate preincubated with compound followed by substrate addition at 30 mins; assay type: ADME
[6] = Metabolic stability in mouse liver microsomes assessed as compound remaining at 0.5 uM incubated for 10 mins in presence of NADPH by UV absorbance based assay; assay type: ADME, Microsome; conditions: read-out: Stability
Cytochrome P450 3A4 [7] = target: T3, Cytochrome P450 3A4; experiment: Inhibition of CYP3A4 (unknown origin) using BFC as substrate; assay type: ADME
Cytochrome P450 1A2 = target: T4, Cytochrome P450 1A2 (Homo sapiens, UniProt P05177); experiment: Inhibition of CYP1A2 (unknown origin); assay type: ADME
T4 sequence (P05177 whole entry): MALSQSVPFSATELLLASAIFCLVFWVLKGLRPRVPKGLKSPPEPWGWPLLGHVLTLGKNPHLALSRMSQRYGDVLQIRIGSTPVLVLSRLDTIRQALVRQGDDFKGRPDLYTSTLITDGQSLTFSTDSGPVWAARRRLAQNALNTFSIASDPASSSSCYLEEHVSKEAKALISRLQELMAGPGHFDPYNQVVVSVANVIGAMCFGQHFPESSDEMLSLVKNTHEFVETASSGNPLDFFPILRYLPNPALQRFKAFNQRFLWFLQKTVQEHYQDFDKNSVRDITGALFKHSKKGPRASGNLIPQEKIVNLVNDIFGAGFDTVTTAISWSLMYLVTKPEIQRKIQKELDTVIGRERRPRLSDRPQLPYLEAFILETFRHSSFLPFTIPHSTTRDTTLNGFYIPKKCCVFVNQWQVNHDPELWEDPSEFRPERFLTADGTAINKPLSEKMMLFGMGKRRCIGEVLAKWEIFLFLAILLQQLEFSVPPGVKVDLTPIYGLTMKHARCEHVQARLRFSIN

[8] = Cytotoxicity against PHA-activated T-cells (unknown origin) assessed as inhibition of IL-2 induced cell proliferation measured after 72 hrs by MTS assay; assay type: toxicity, cell-based
[9] = Metabolic stability in human liver microsomes assessed as compound remaining at 0.5 uM incubated for 10 mins in presence of NADPH by UV absorbance based assay; assay type: ADME, Microsome; conditions: read-out: Stability
Cytochrome P450 3A4 [10] = target: T3, Cytochrome P450 3A4; experiment: Inhibition of CYP3A4 (unknown origin) using BFC as substrate preincubated with compound followed by substrate addition at 5 mins; assay type: ADME
Cytochrome P450 2C19 = Cytochrome P450 2C19 (Homo sapiens, UniProt P33261); experiment: Inhibition of CYP2C19 (unknown origin); assay type: ADME
Cytochrome P450 2C8 = target: T5, Cytochrome P450 2C8 (Homo sapiens, UniProt P10632); experiment: Inhibition of CYP2C8 (unknown origin); assay type: ADME
T5 sequence (P10632 whole entry): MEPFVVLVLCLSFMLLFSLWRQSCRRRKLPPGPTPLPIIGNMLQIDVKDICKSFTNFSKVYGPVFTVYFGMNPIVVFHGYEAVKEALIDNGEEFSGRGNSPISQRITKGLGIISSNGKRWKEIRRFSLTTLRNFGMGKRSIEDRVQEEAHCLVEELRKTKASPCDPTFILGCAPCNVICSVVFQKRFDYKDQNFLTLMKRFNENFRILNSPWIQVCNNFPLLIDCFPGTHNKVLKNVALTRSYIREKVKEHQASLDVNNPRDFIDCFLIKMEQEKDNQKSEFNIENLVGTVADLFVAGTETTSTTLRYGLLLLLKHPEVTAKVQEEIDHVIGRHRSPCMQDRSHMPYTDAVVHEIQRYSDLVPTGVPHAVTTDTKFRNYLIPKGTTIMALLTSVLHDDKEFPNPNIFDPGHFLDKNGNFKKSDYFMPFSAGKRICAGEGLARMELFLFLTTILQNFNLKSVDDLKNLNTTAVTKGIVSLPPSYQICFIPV

Cytochrome P450 2D6 = Cytochrome P450 2D6 (Homo sapiens, UniProt P10635); experiment: Inhibition of CYP2D6 (unknown origin); assay type: ADME
Cytochrome P450 2C9 = Cytochrome P450 2C9 (Homo sapiens, UniProt P11712); experiment: Inhibition of CYP2C9 (unknown origin); assay type: ADME
[11] = target: T6, Toll-like receptor 7 (Mus musculus) (UniProt P58681); experiment: as §1
T6 sequence (whole entry): T1 sequence (P58681 whole entry)

T3 sequence (P08684 whole entry): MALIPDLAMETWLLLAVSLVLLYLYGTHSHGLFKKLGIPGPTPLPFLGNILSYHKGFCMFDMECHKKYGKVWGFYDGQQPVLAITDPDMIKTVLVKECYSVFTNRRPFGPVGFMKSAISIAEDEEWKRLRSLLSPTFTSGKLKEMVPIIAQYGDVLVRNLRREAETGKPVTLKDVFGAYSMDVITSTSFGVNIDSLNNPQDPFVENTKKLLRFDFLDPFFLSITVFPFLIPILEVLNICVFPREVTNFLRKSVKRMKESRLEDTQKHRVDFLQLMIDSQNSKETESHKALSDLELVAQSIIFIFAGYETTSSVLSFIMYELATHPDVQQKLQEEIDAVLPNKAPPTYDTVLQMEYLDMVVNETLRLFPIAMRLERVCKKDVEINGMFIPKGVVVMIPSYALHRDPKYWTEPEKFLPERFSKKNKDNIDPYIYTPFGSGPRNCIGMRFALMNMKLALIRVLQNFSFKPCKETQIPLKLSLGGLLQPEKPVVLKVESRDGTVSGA
Chain of Cytochrome P450 2D6 (P10635 whole entry): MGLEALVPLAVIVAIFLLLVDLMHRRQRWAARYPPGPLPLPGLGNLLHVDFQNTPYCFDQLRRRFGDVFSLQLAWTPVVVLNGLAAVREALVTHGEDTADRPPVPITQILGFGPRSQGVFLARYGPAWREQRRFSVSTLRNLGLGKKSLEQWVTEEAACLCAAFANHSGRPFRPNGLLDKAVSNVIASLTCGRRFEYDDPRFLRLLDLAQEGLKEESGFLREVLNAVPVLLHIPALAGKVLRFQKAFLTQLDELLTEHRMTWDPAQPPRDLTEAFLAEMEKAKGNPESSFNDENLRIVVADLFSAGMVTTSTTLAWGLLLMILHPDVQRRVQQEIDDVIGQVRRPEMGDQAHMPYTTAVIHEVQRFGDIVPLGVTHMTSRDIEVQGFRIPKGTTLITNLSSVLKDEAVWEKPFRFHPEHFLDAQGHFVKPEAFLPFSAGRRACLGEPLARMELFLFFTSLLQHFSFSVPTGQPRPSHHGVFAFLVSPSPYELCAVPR
Chain of Cytochrome P450 2C9 (P11712 whole entry): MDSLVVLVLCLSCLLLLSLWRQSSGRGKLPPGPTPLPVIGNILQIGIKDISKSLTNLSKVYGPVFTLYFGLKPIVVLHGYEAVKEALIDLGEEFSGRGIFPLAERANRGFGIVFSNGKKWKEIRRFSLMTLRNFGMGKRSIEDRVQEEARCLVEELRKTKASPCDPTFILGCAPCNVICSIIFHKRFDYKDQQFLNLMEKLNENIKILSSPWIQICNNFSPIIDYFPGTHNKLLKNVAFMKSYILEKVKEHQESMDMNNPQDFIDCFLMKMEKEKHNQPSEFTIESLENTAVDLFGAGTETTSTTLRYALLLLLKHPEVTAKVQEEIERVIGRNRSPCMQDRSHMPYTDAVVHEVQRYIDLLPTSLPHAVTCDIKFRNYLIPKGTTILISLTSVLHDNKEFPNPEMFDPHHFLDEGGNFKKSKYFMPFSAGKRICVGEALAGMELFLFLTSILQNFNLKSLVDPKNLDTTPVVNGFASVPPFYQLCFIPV
Chain of Cytochrome P450 2C19 (P33261 whole entry): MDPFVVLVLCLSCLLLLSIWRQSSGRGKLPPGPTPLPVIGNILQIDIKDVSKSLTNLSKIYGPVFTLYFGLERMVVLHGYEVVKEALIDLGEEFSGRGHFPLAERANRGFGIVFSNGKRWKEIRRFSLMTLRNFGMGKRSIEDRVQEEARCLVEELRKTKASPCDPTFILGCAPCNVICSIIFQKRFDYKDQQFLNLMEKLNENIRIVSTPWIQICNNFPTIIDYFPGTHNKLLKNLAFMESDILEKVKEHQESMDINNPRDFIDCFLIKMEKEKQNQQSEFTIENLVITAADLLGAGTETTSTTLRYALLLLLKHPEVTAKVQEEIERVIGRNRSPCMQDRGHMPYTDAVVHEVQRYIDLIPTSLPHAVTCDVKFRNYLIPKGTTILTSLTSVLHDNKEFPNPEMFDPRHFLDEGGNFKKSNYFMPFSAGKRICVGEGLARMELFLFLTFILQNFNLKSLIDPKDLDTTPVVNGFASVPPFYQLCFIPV
Chain of Voltage-gated inwardly rectifying potassium channel KCNH2 (Q12809 whole entry): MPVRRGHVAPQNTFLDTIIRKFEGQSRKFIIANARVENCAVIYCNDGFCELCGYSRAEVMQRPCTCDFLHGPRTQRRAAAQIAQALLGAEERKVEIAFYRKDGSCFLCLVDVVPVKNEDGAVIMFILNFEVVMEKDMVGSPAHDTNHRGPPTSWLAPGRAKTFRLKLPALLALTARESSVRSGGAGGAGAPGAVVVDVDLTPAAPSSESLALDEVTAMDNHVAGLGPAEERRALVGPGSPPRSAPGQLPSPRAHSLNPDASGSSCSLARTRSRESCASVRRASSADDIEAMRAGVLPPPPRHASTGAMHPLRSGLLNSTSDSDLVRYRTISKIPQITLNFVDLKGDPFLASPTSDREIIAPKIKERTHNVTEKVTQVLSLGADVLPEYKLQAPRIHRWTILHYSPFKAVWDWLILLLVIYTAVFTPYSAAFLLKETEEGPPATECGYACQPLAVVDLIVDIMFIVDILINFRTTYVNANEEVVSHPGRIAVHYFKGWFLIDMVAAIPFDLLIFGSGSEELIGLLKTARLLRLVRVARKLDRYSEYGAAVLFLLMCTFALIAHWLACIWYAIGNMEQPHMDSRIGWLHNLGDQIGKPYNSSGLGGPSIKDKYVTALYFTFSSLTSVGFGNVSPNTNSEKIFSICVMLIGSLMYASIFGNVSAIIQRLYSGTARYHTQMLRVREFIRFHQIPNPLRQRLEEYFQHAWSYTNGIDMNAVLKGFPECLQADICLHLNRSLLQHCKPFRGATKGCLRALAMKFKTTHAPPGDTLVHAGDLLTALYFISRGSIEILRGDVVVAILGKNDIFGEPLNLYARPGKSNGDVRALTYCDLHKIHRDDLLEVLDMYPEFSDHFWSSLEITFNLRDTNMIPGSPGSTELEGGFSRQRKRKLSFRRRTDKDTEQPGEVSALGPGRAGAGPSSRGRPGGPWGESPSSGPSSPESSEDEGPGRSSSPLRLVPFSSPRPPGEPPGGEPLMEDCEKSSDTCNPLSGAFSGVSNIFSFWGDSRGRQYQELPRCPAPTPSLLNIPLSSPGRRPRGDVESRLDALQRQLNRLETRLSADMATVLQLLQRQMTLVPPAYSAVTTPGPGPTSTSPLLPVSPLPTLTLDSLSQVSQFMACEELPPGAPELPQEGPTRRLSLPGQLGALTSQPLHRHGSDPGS

Papp [1] | EC50 (Toll-like receptor 7 [2]) | EC50 (Toll-like receptor 7 [4]) | IC50 (Cytochrome P450 3A4 [5]) | remaining at 10 min, 0.5 µM [6] | IC50 (Cytochrome P450 3A4 [7]) | IC50 (Cytochrome P450 1A2) | remaining at 10 min, 0.5 µM [9] | IC50 (Cytochrome P450 3A4 [10]) | IC50 (Cytochrome P450 2C19) | IC50 (Cytochrome P450 2C8) | IC50 (Cytochrome P450 2D6) | IC50 (Cytochrome P450 2C9) | Activity [11] | SMILES | IC50 [3] | IC50 at 72 h [8]
0.9 ×10⁻⁶ cm/s | 0.512 µM | 0.163 µM | > 20 µM | 85% | > 20 µM | > 20 µM | 84% | > 20 µM | > 20 µM | > 20 µM | > 20 µM | > 20 µM | – | CCC[C@@H](CCO)Nc1nc(N)nc2cnn(Cc3ncc(C4CCNCC4)cc3OC)c12 | > 50 µM | > 25 µM
– | – | 0.145 µM | > 20 µM | 67% | > 20 µM | > 20 µM | 65% | > 20 µM | > 20 µM | > 20 µM | > 20 µM | > 20 µM | inactive | CCC[C@@H](CCO)Nc1nc(N)nc2cnn(Cc3ncc(C4CCN(CC#N)CC4)cc3OC)c12 | 30.2 µM | > 25 µM
93 ×10⁻⁶ cm/s | 0.041 µM | 0.018 µM | > 20 µM | 78% | > 20 µM | > 20 µM | 80% | > 20 µM | > 20 µM | > 20 µM | > 20 µM | > 20 µM | – | CCC[C@@H](CCO)Nc1nc(N)nc2cnn(Cc3ncc(C4CCN(C(C)C)CC4)cc3OC)c12 | > 50 µM | > 25 µM
6.6 ×10⁻⁶ cm/s | 0.076 µM | – | > 20 µM | 76% | > 20 µM | > 20 µM | 78% | > 20 µM | > 20 µM | > 20 µM | > 20 µM | > 20 µM | – | CCC[C@@H](CCO)Nc1nc(N)nc2cnn(Cc3ncc(C4CCN(C)CC4)cc3OC)c12 | 43 µM | > 25 µM
– | – | 0.272 µM | > 20 µM | 95% | > 20 µM | > 20 µM | 67% | > 20 µM | > 20 µM | > 20 µM | > 20 µM | > 20 µM | inactive | CCC[C@H](CCO)Nc1nc(N)nc2cnn(Cc3ncc(C4CCN(C5CCOCC5)CC4)cc3OC)c12 | > 50 µM | > 25 µM
– | – | – | > 20 µM | 100% | > 20 µM | > 20 µM | 100% | > 20 µM | > 20 µM | > 20 µM | > 20 µM | > 20 µM | inactive | CCC[C@@H](CCO)Nc1nc(N)nc2cnn(Cc3ncc(C4CCN(C5CCNCC5)CC4)cc3OC)c12 | 32.6 µM | > 25 µM
